Melting point data for 86 molecules are collected here from a melting point compilation (Tetko et al.; mined from patent text by program, amines drawn as free bases though some values may be those of a salt).

Some results are limits rather than exact numbers.

Molecule `CC(=O)c1cc2c(s1)S(=O)(=O)CCc1cc(=O)n(-c3ccc(Cl)cc3)nc1-2` displayed a melting point of 272 to 273 °C.

Molecule `O=C(c1ccc(-c2cnc3c(c2)N(Cc2ccccc2)CCN3)cc1)N1CCC(N2CCCC2)CC1` had a melting point of 120 °C.

In turn, `O=C1CN(c2ccccc2)C(=O)N1CCBr` returned a melting point of 146 to 147 °C.

`Cc1ccnc(N2CCN(CCCCC3Sc4cc(O)ccc4NC3=O)CC2)c1` (stereo unspecified) registered a melting point of 212 °C.

As to `COc1cccc2c1cc(C)n2Cc1ccc(F)cc1`, the melting point was in the range of 104 to 108 °C.

On to `Cc1cc2c(cc1C)OC(CCN1CCC3(CC1)CNC(=O)CO3)CO2` (stereo unspecified), for which the melting point was in the range of 164 to 166 °C.

On to `CC[C@@H](c1ccccc1)N(Cc1ccc(C(=O)O)cc1)S(=O)(=O)c1ccc(C(=O)O)cc1`, for which the melting point is 102 to 104 °C.

Molecule `CC(C1CC1)C(O)(Cn1nc[nH]c1=S)c1ccc(Cl)cc1` (stereo unspecified) came in with a melting point of 137 °C.

Molecule `O=c1[nH]c2ncc(-c3ccc(-c4n[nH]c(CN5CCOCC5)n4)cc3)nc2n1CC1CCOCC1` gave a melting point of 281 to 283 °C.

`CC12CCC(=O)C=C1CCC1C2CCC2(C)C(OC(=O)CBr)CCC12` (stereo unspecified) registered a melting point of 144 to 145 °C.

Take `COc1ccc(C2CCc3cc(OC)ccc3C2CCCn2ccnc2)cc1` (stereo unspecified): the melting point turned out to be 67 °C.

Consider `COC(=O)[C@@]12CO[C@@H](C(C)(C)C)N1C(=O)[C@@H](Cc1ccccc1)C2`, for which the melting point was in the range of 130 to 131 °C.

Molecule `CCOC(=O)c1[nH]c2c(C)ccc(C)c2c1C(=O)OC` came in with a melting point of 128 to 129 °C.

`OCC1CCCN(c2nc(-c3ccccc3)nc3ccccc23)C1` (stereo unspecified): the melting point was in the range of 116 to 118 °C.

`CCOC(=O)c1cn(-c2nnc(C)s2)c2nc(N3CC[C@H](N)C3)c(F)cc2c1=O`: the melting point lay within 265 to 268 °C.

The molecule `CCCN(CCSc1nc(-c2ccccc2)c(-c2ccccc2)[nH]1)C(=O)Nc1ccc(F)cc1F` returned a melting point of 189 to 190 °C.

`COc1ccc(N(C)c2nc(C)nc3oc4c(c23)CCCC4)cc1` showed a melting point of 147 to 149 °C.

`CN(C)Cc1ccc(-c2cccc(-c3ccnc4c(C(=O)c5cccs5)cnn34)c2)cc1` returned a melting point of 192 to 195 °C.

`Cc1nnc2c3ccc(Cl)cc3c(-c3ccccc3)nn12` yielded a melting point of 236 to 238 °C.

In the case of `NCC1Cc2cc(-c3ccccc3)cc(-c3ccc(F)cc3F)c2O1` (stereo unspecified), the melting point lay in the range of 159 to 162 °C.

The molecule `Cc1ccc(S(=O)(=O)OCC(O)Cc2cccc(C(C)(C)C)c2O)cc1` (stereo unspecified) registered a melting point of 98 to 101 °C.

In the case of `Cc1oc2ccccc2c(=O)c1C(=O)O`, the melting point fell in the range of 120 to 135 °C.

With `O=C(O)CCOC(c1ccccc1)(c1ccccc1)c1ccccc1`, the melting point is 159 to 161 °C.

In turn, `CC(=O)NCC1CN(c2ccc(N3CCC(O)(C(F)(F)F)C(C)C3)c(F)c2)C(=O)O1` (stereo unspecified) yielded a melting point of 144 to 146 °C.

`O=[N+]([O-])c1cc(Cn2cncn2)ccc1Cl` returned a melting point of 98.9 °C.

With `CC#Cc1cn(C2OC(CO)C(O)C2O)c(=O)nc1N` (stereo unspecified), the melting point was in the range of 241 to 243 °C.

Molecule `Nc1nc2cc(Cl)c(Cl)cc2[nH]1` showed a melting point of 260 to 262 °C.

Molecule `O=C(CN1C(=O)C2(COc3cc(Cl)ccc32)c2ccccc21)Nc1ccccc1F` (stereo unspecified) came in with a melting point of 70 to 75 °C.

For `CCC1NC(c2cc(Cl)nc(Cl)c2)=NC(=O)C1(CC)C(=O)OC` (stereo unspecified), the melting point was 202 to 203 °C.

`Nc1ccccc1CCc1n[nH]c2c1c(=O)n(-c1ccccc1)c1ncccc21`: the melting point lay in the range of 289 to 291 °C.

In turn, `COC(=O)C(CCCN(C)CCc1ccc(OC)c(OC)c1)c1ccc(OC)c(OC)c1` (stereo unspecified) registered a melting point of 112 to 114 °C.

`CCSc1cccc(-c2nc(=O)c3ccccc3s2)n1` showed a melting point of 161 to 162 °C.

In the case of `CC(=O)Nc1cccc(-c2cc3nc(-c4cccnc4N)n(-c4cccc(-c5cc(C)nc6ccc(NC(C)=O)cc56)c4)c3nc2-c2cccnc2)c1`, the melting point is 176 to 178 °C.

In turn, `O=C(Nc1ccc(F)cc1F)c1cc(-c2ccc(F)cc2F)ccc1O` had a melting point of 233 to 234 °C.

`CCOC(=O)c1c(/C=C/c2nccn2C)nc2cc(OC)c(OC)cc2c1-c1ccc(OC)c(OC)c1`: the melting point fell in the range of 206 to 208 °C.

`N#Cc1cc(N2C=CN=CC2)c[nH]c1=O` showed a melting point greater than 250 °C.

Consider `Cc1ccc(-c2nc3ccccc3[nH]2)nc1`, for which the melting point fell in the range of 229 to 230 °C.

As to `CCCCCCCCCN(C)c1ccc(S(=O)(=O)Nc2ccccc2)cc1`, the melting point is 113 to 116 °C.

On to `CC1(C)OC(=C(C#N)C#N)C(C#N)=C1C=Cc1cc2c3c(c1)CCCN3CCC2`, for which the melting point turned out to be 243 °C.

As for `O=C1C(Cl)=C(c2ccccc2)C(=O)N1c1ccc(Cl)cc1`, the melting point lay within 116 to 117 °C.

Regarding `COCc1c2c(n(Cc3ccccc3)c1-c1ccccc1)C(C)CN(Cc1ccccc1)C2` (stereo unspecified), the melting point was in the range of 140 to 141 °C.

On to `CC(C)(C)c1cc(-c2ccc(NC(=O)c3ccccc3C(=O)O)cc2)cc(C(C)(C)C)c1O`, for which the melting point fell in the range of 196 to 198 °C.

Molecule `COC(=O)c1ccc(-c2ncccc2S(=O)(=O)Nc2ncc(C)nc2OC)cc1` showed a melting point of 144 to 146 °C.

Regarding `O=C1NCCc2ccc(OCCCCCl)cc2N1`, the melting point is 177 to 179 °C.

`CC(=O)Nc1ccccc1-n1cc2c(c1-c1ccccc1)c(=O)n(C)c(=O)n2C` returned a melting point greater than 250 °C.

`CCc1c([N+](=O)[O-])c(C(N)=O)nn1CCOC` had a melting point of 140 °C.

`NC12CC3CC(C1)CC(O)(C3)C2` displayed a melting point of 260 to 264 °C.

`COc1cc(OC)cc(-c2nc3ccc(Nc4ccncc4)cc3c(=O)[nH]2)c1` yielded a melting point of 289 to 290 °C.

The molecule `CCCNC(=S)n1nc(Oc2ncc(C(F)(F)F)cc2Cl)cc1C` gave a melting point of 51 to 53 °C.

Molecule `COc1ccc(CCCCCCCOc2ccccc2)cc1` showed a melting point of 32 to 34 °C.

`Cc1cccc(C(=O)NCc2cccc3c2C(=O)N(C2CCC(=O)NC2=O)C3=O)n1` (stereo unspecified) yielded a melting point of 197 to 199 °C.

On to `NC(=O)c1ccccc1-c1n[nH]c(-c2ccccc2)n1`, for which the melting point lay in the range of 222 to 225 °C.

`COc1cc(C(=O)N2CCC(CCN3CCC(C(=O)c4nc5ccccc5n4Cc4ccc(F)cc4)CC3)(c3ccccc3)C2)cc(OC)c1OC` (stereo unspecified) showed a melting point of 107 to 109 °C.

For `O=C(Cc1ccccc1)Nc1n[nH]c(-c2ccc(F)cc2)c1-c1ccncc1`, the melting point lay within 289 to 290 °C.

For the molecule `Nc1nc2c(ncn2COCC=O)c(=O)[nH]1`, the melting point is 350 °C.

`COc1ccc(CN(C)CCCc2ccc(NC(=O)c3cccc4c(=O)cc(-c5ccccc5)[nH]c34)cc2)cc1OC` registered a melting point of 180 °C.

For `CCOC(=O)c1c(CCc2ccc(C(F)(F)F)cc2)nc2c(c1-c1ccc(C(=O)N[C@@H](C)c3ccncc3)cc1)C(=O)N1CCC[C@@H]21`, the melting point is 158 to 160 °C.

In turn, `ClC1(c2ccccc2)c2ccccc2-c2ncncc21` (stereo unspecified) gave a melting point of 119 to 120 °C.

In turn, `O=C(O)c1ccc(-c2nc3cc(Cl)c(Cl)cc3[nH]2)cc1` came in with a melting point greater than 250 °C.

With `CCOc1ccc(-c2ccc(Cl)nn2)c(OCC2CO2)c1` (stereo unspecified), the melting point is 93 to 94 °C.

Consider `CCCCN(CCCCCN(CCCC)c1ccc(C=O)cc1)c1ccc(C=O)cc1`, for which the melting point lay within 51 to 52 °C.

For the molecule `CNc1nc(Nc2cccc(OCCNC(=O)OC(C)(C)C)c2)ncc1[N+](=O)[O-]`, the melting point was 193 °C.

Consider `CN(C)C(=O)c1cc(-c2ccc(-c3ccco3)cc2)n(-c2ccc(S(C)(=O)=O)c(F)c2)n1`, for which the melting point was 167 to 168 °C.

In turn, `CN1CCN(c2cccc3c2C[C@H](NC(=O)c2ccc(N4CCNCC4)cc2)CO3)CC1` came in with a melting point greater than 102 °C.

Take `O=C(O)Cc1ccc(-c2cn3ccsc3n2)cc1`: the melting point lay in the range of 248 to 249 °C.

`COC1CNCc2cc3ccccc3n21` (stereo unspecified): the melting point was in the range of 120 to 122 °C.

On to `O=C(Nc1nc(-c2ccc([N+](=O)[O-])cc2)cs1)OCC(Cl)(Cl)Cl`, for which the melting point was 207 to 209 °C.

With `Cc1cc(-c2c(-c3ccc(S(C)(=O)=O)cc3)cnn(-c3ccc(F)c(Cl)c3)c2=O)ccc1F`, the melting point lay within 207 to 208 °C.

With `CCCCCCN(C)c1ccc(C=C2SC(=S)N(CC(=O)NC)C2=O)cc1`, the melting point fell in the range of 228 to 230 °C.

In turn, `CC(C)(C)OC(=O)Nc1ccc(C#Cc2ccccc2)cc1N` came in with a melting point of 177 to 178 °C.

Molecule `CCOC(=O)c1[nH]c2cc(Cl)cc(Cl)c2c1N(Cc1ccccc1)C(=O)c1ccccc1` came in with a melting point of 174 to 175 °C.

Molecule `O=C(NC1CCCC1)c1cc2ccncc2[nH]1` yielded a melting point of 220 to 224 °C.

`C#Cc1cc(C=Cc2cc(C(C)(C)C)cc(C(C)(C)C)c2)cc(C=Cc2cc(C(C)(C)C)cc(C(C)(C)C)c2)c1` returned a melting point of 156 to 157 °C.

`Clc1ccc2[nH]cc(C3=CCC4(CC3)OCCO4)c2c1` displayed a melting point of 178 to 181 °C.

`COCCOCOc1ccc(C(=O)c2nc3ccc(OCOCCOC)cc3s2)cc1`: the melting point turned out to be 46 °C.

`CCc1ccc(Nc2c(F)c(F)cc(F)c2F)c(CC(=O)N(C)C)c1`: the melting point fell in the range of 105 to 106 °C.

Molecule `Nc1ncnc2c1ncn2[C@H]1C=C[C@@H](O)C1` (racemic) gave a melting point of 180 °C.

Regarding `COc1cc(C=CC(=O)c2cccc(F)c2)cc(OC)c1`, the melting point fell in the range of 89.5 to 90.3 °C.

Regarding `O=c1[nH]c2cc(Cl)ccc2c(O)c1Sc1cccc(Br)c1`, the melting point lay in the range of 265 to 268 °C.

In turn, `COC(=O)c1cc(Cl)ncc1[N+](=O)[O-]` yielded a melting point of 60.5 to 64.1 °C.

As to `N#Cc1cccc(OC2SCC(O)C(O)C2O)c1` (stereo unspecified), the melting point is 130 to 135 °C.

`CCCc1c2oc(C(=O)O)cc(=O)c2cc2c(=O)cc(N(C(C)=O)C(C)=O)oc12` registered a melting point of 267 °C.

Consider `COc1cccc(Cc2nc3n(-c4c(Cl)cc(Cl)cc4Cl)[nH]c(SC)c-3c(=O)n2)c1`, for which the melting point is 245 to 248 °C.

For the molecule `Cc1cc(C)nc(NC(=O)NS(=O)(=O)c2ccccc2C2(O)CCC2)n1`, the melting point was in the range of 148 to 150 °C.

Molecule `O=C(O)Cc1c(C(=O)c2cccc(OCc3ccccc3)c2)[nH]c2cc(Cl)ccc12` yielded a melting point of 174 to 177 °C.

Turning to `CC(C)(C)OC(=O)Nc1ccc(OC2CNC2)cc1`, the melting point was 184 to 186 °C.

What is called melting point is the temperature of the solid-liquid transition.
